Data from PubChem BioAssay (NCI).
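Method: 48-hour compound exposure of cells in 96-well plates, five concentrations, linear interpolation of endpoints. GI50: concentration for 50% inhibition of growth. TGI: total growth inhibition.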

Key:
Assay in all cases: NCI tumour cell line growth inhibition, 48 h
[1] = system: A549 NSCLC
[2] = system: COLO 205 colon
[3] = system: DU-145 prostate
[4] = system: HT29 colon
[5] = system: IGROV1 ovarian
[6] = system: LOX IMVI melanoma
[7] = system: NCI-H23 lung
[8] = system: OVCAR-5 ovarian
[9] = system: OVCAR-8 ovarian
[10] = system: UO-31 renal

Row | SMILES | GI50 [1] | TGI [1] | GI50 [2] | TGI [2] | GI50 [3] | TGI [3] | GI50 [4] | TGI [4] | GI50 [5] | TGI [5] | GI50 [6] | TGI [6] | GI50 [7] | TGI [7] | GI50 [8] | TGI [8] | GI50 [9] | TGI [9] | GI50 [10] | TGI [10]
1 | COc1ccc(-n2nc(C)c3c(Nc4ccc(NC(=O)Nc5cccc(C(F)(F)F)c5)cc4)ncnc32)cc1 | 1.65 µM | 3.45 µM | 1.65 µM | 3.49 µM | 1.97 µM | 4.54 µM | 1.77 µM | 3.96 µM | 2 µM | 4.18 µM | 1.3 µM | 2.65 µM | 1.68 µM | 3.68 µM | 1.76 µM | 4.12 µM | 1.93 µM | 4.39 µM | 1.51 µM | 2.86 µM
2 | COc1ccc(C2=C(c3ccc(OC)cc3)C(=O)OC2)cc1 | 2.57 µM | > 100 µM | 1.38 µM | > 100 µM | 2.38 µM | > 46.6 µM | 0.437 µM | > 100 µM | 5.03 µM | > 100 µM | 0.964 µM | 15.1 µM | 3.46 µM | 30.8 µM | 20.2 µM | > 100 µM | 1.35 µM | > 52.3 µM | 3.18 µM | > 43.5 µM
3 | COC(=O)CNC(=O)C(=O)c1c(O)c(O)c(C(C)C)c2cc(C)c(-c3c(C)cc4c(C(C)C)c(O)c(O)c(C(=O)C(=O)NCC(=O)OC)c4c3O)c(O)c12 | 2.13 µM | 8.01 µM | 1.28 µM | 3.16 µM | 1.99 µM | 7.91 µM | 1.58 µM | 5.36 µM | 1.92 µM | 8.94 µM | 1.56 µM | 6.28 µM | 1.53 µM | 6.37 µM | 1.56 µM | 9.13 µM | 2.05 µM | 8.4 µM | 1.43 µM | 6.04 µM
